Source: ChEMBL document CHEMBL3988442, “University of Dundee, Small-Polar-MMV Screening Library” (2021)

Legend:
[1] = system: Plasmodium falciparum; test: Calibr Malaria Delayed Death Assay SOP; assay type: functional, organism-based; conditions: for IC50: Plasmodium falciparum
[2] = microbe, parasite or virus in culture; conditions: Mycobacterium tuberculosis, 96 h, read-out: pIC50 (converted)
[3] = microbe, parasite or virus in culture; conditions: Mycobacterium tuberculosis, 72 h, read-out: pIC50 (converted)

| SMILES | pIC50 [1] | IC50 [1] | IC50 [2] | IC50 [3] |
| --- | --- | --- | --- | --- |
| Fc1ccc(Sc2ccccc2CNC2=NCCN2)cc1.I | 5.875 | 1.21 µM | – | – |
| Fc1ccccc1Sc1ccccc1CNC1=NCCN1.I | 5.863 | 1.61 µM | – | – |
| NC(=O)c1cc(S(=O)(=O)NCCc2ccccc2)cs1 | – | – | > 501 µM | 247 µM |
| NC(=O)C1CCCN(CCc2ccccc2)C1 (stereo unspecified) | – | – | > 501 µM | > 501 µM |
| CN(C)CCNC(=O)c1ccc(Cl)cc1 | – | – | > 501 µM | > 501 µM |
| O=S(=O)(NC[C@H]1C[C@@H]2CCN1C[C@@H]2CN1CCCC1)c1ccc(Cl)cc1 | 5.945 | 1.13 µM | – | – |
| NC(=O)c1cccc2nc([C@H]3CCN(Cc4ccccn4)C3)[nH]c12 | 7.592 | 0.0275 µM | – | – |
| CCC1CN(CC(=O)NCCN2CCCCC2)c2ccccc2S1 (stereo unspecified) | 6.107 | 0.937 µM | – | – |
| COc1ccc(CCC(=O)NCCN2CCC(c3cccs3)CC2)cc1 | 6.185 | 0.781 µM | – | – |
| O=C(NCCc1ccccc1)NCCN1CCC(c2cccs2)CC1 | 6.05 | 0.855 µM | – | – |
| COc1ccc(-c2c(C)nn3c(=N)c(C#N)n[nH]c23)cc1OC | 6.297 | 0.538 µM | – | – |
| CC(C)C(=O)N1CCCC2(CCCN2CC2CCCC2)C1.O=C(O)C(F)(F)F (stereo unspecified) | 5.828 | 1.15 µM | – | – |
| Fc1cccc(CN2C[C@@H]3CN(Cc4ccccn4)C[C@@H]3C2)c1.O=C(O)C(F)(F)F.O=C(O)C(F)(F)F | 6.169 | 0.531 µM | – | – |
| Fc1ccc(CN2CCC3(CC2)CCN(Cc2nccs2)CC3)cc1.O=C(O)C(F)(F)F.O=C(O)C(F)(F)F | 6.206 | 0.708 µM | – | – |
| Cc1ccc(CN2CCC3(CC2)CCN(Cc2ccoc2)CC3)cc1.O=C(O)C(F)(F)F.O=C(O)C(F)(F)F | 6.821 | 0.202 µM | – | – |
| CN(C)[C@@H]1CCN(c2ncc(F)cn2)[C@H]1Cc1ccccc1.O=C(O)C(F)(F)F.O=C(O)C(F)(F)F | 6.038 | 0.868 µM | – | – |
| CN(Cc1ccco1)C[C@H]1OC[C@@H]2CCN(Cc3ccsc3)C[C@@H]21.O=C(O)C(F)(F)F.O=C(O)C(F)(F)F | 6.029 | 1.29 µM | – | – |
| CN1CCn2c(-c3cccc(F)c3)cnc2C12CCN(CC1CC1)CC2.O=C(O)C(F)(F)F.O=C(O)C(F)(F)F.O=C(O)C(F)(F)F | 6.083 | 1.1 µM | – | – |
| CN(Cc1ccco1)C[C@H]1OC[C@@H]2CCN(Cc3ccccn3)C[C@@H]21.O=C(O)C(F)(F)F.O=C(O)C(F)(F)F.O=C(O)C(F)(F)F | 5.905 | 1.72 µM | – | – |
| CN(CCO)CC1COCCN1C(=O)C1(c2cccs2)CCCC1.O=CO (stereo unspecified) | 6.007 | 0.573 µM | – | – |
| I.c1ccc(Sc2ccc3c(c2)OCO3)c(CNC2=NCCN2)c1 | 6.103 | 0.604 µM | – | – |
| CC(N)Cc1ccccc1Sc1ccccc1.O=C(O)/C=C\C(=O)O (stereo unspecified) | 6.082 | 0.854 µM | – | – |
| CCCN1CCN(C(=O)COc2ccccc2)CC1 | – | – | 57.3 µM | 33.3 µM |

| SMILES | pIC50 [1] | IC50 [1] | IC50 [2] | IC50 [3] |
| --- | --- | --- | --- | --- |
| O=C(COc1ncccn1)Nc1ccc(F)cc1F | – | – | > 501 µM | > 501 µM |
| CCOc1ccc(C(=O)CCN(C)C)cc1 | – | – | 191 µM | 160 µM |
| Cc1onc(N)c1S(=O)(=O)NCc1ccccc1Cl | – | – | > 501 µM | 156 µM |
| CC1CN(CCCOc2ccc(C#N)cc2)CCN1 (stereo unspecified) | – | – | 390 µM | > 501 µM |
| CSc1ccc2c(c1)CCN(C(=O)C1CCNC1)C2 (stereo unspecified) | – | – | > 501 µM | 168 µM |
| CN(Cc1nccs1)C(=O)C1COc2ccccc2C1 (stereo unspecified) | – | – | 195 µM | 242 µM |
| CC(C)CC1CCN(C(=O)CCn2cnnn2)C1 (stereo unspecified) | – | – | 77.2 µM | 28.3 µM |
| CNC(=O)c1ccc(Cl)c(S(=O)(=O)N2CCCCC2)c1 | – | – | > 501 µM | > 501 µM |
| CC1CN(CCC(=O)NCc2cccs2)CCCO1 (stereo unspecified) | – | – | > 501 µM | > 501 µM |
| NCC(=O)N1CCCC(COc2ccc(F)cc2)C1 (stereo unspecified) | – | – | > 501 µM | 220 µM |
| COc1cccc(-c2cnn(CCC(N)=O)c2)c1F | – | – | > 501 µM | 355 µM |
| CCC[C@H]1CN(S(=O)(=O)Cc2ccc(F)cc2)C[C@@H]1N | – | – | > 501 µM | > 501 µM |
| N[C@@H]1CC[C@H](C(=O)NCCOCc2ccccc2)C1 | – | – | 267 µM | 226 µM |
| CC(C)c1cc(C(=O)N2CC(c3ccccn3)C2)no1 | – | – | 60.5 µM | 70.5 µM |
| CC(C)CC(O)C(=O)NCc1cc2ccccc2[nH]1 (stereo unspecified) | – | – | > 501 µM | > 501 µM |
| NCC1CN(Cc2c(Cl)cncc2Cl)CCO1 (stereo unspecified) | – | – | > 501 µM | 70.8 µM |
| O=C(CCc1cc(Cl)no1)N1CCOC(C(F)(F)F)C1 (stereo unspecified) | – | – | 134 µM | > 501 µM |
| CCCC(C)NC(=O)c1coc(C)n1 (stereo unspecified) | – | – | > 501 µM | > 501 µM |
| COC1CCN(C(=O)CCc2ccc(F)cc2F)C1 (stereo unspecified) | – | – | 21.4 µM | 206 µM |
| N[C@H]1CN(S(=O)(=O)c2cccc(Cl)c2)C[C@@H]1C1CC1 | – | – | > 501 µM | 363 µM |
| NCC(=O)N1CCCC(CCc2ccc(F)c(F)c2)C1 (stereo unspecified) | – | – | 183 µM | 190 µM |
| CC(C)(N)CN1CCCN(c2ccc(F)cc2)CC1 | – | – | 265 µM | 203 µM |
| NCC(=O)N1CCCC(CCc2ccc(F)cc2)C1 (stereo unspecified) | – | – | 310 µM | 333 µM |

| SMILES | pIC50 [1] | IC50 [1] | IC50 [2] | IC50 [3] |
| --- | --- | --- | --- | --- |
| Cc1cc(C)c(C#N)c(N2CCOCC(CO)C2)n1 (stereo unspecified) | – | – | > 501 µM | > 501 µM |
| N#Cc1nc(-c2ccccc2)oc1NCCCO | – | – | > 501 µM | 243 µM |
| CC(C(=O)Nc1ccc(Br)cc1)n1cnnn1 (stereo unspecified) | – | – | 199 µM | 393 µM |
| CC(=O)N1CCc2onc(-c3ccc(F)c(F)c3)c2C1 | – | – | 262 µM | 393 µM |
| COc1ccc(-c2cc(NCCO)nc(N)n2)cc1C | – | – | > 501 µM | 280 µM |
| CNc1nc(C(=O)NC2COc3ccccc3C2)cs1 (stereo unspecified) | – | – | 262 µM | 130 µM |
| CN(Cc1ccc(Oc2ccccc2)cc1)C(=O)CN | – | – | 157 µM | 130 µM |
| CN1CCN(C(=O)CC2Cc3ccccc3C2)CC1 | – | – | 43.7 µM | 96 µM |
| O=C(NCc1ccc2c(c1)OCO2)N1CCCCC1 | – | – | 43.3 µM | 139 µM |
| CC(C)c1ncc(C(=O)N2CCS(=O)(=O)CC2)cn1 | – | – | > 501 µM | > 501 µM |
| COC(=O)COc1ccc2c(c1)OCO2 | – | – | > 501 µM | 140 µM |
| O=C(CCc1ccccc1)N1CC(c2cccnc2)C1 | – | – | 25.3 µM | 45.7 µM |
| CC(=O)c1cc(C(=O)NCCSC(F)(F)F)[nH]n1 | – | – | 79.5 µM | 274 µM |
| CCCc1ccc(CN2C[C@H](OCC)[C@@H](O)C2)o1 | – | – | 241 µM | 298 µM |
| Cc1cc(CN2CCC(Oc3cccnc3)CC2)on1 | – | – | > 501 µM | > 501 µM |
| NCC(=O)N1CCCC(CCc2ccc(F)cc2F)C1 (stereo unspecified) | – | – | 310 µM | 137 µM |
| Cc1ccc(F)c(C(=O)N[C@@H]2CNC[C@H]2O)c1Cl | – | – | > 501 µM | > 501 µM |
| CCCn1nnc(NC(=O)c2ccccc2F)n1 | – | – | > 501 µM | 59.9 µM |
| CSc1cccc(CN(C)C(=O)CNC2CC2)c1 | – | – | > 501 µM | 297 µM |
| CSCCN(C)Cc1cn(-c2ccccc2)nn1 | – | – | > 501 µM | > 501 µM |
| O=C(CO)N1CCCC(CCc2ccccc2F)C1 (stereo unspecified) | – | – | 142 µM | 196 µM |
| COCCCN1CCN(c2ccccc2OC)CC1 [DIMETHOLIZINE] | – | – | > 501 µM | 346 µM |
